In patent US4289776A, “Xanthine derivatives” (Hoechst Aktiengesellschaft, priority 1973, dated 1981):

Legend:
[1] = system: cerebral blood circulation; experiment: Cerebral blood circulation after intraduodenal administration to narcotized cats; type: in vivo, cat
mouse [2] = experiment: Toxicity in the mouse (LD50); settings: in vivo, ip
Procedure: (§1) The toxicity was determined as LD50 --range or as LD50 according to Litchfield and Wilcoxon ("J. Pharmacol. exp. Ther." 97 (1949), page 399) in the mouse.

[3] = Toxicity in the mouse (LD50); settings: in vivo, ip, mice, intraperitoneally, read-out: LD50 -value for mice
Procedure: as §1

blood vascular system = settings: known compounds; cited from earlier work
human blood = experiment: Fibrinolytic effect in vitro, Hanging-Clot-test; type: biochemical; settings: human blood
Procedure: This effect was measured by the Hanging-Clot-test according to K. N. von Kaulla ("Journ. med. Chem." vol. 8 (1965), page 164) in using human blood. The incubation time was 24 or 48 hours.

[4] = system: bronchospasm against acetylcholine; experiment: Broncholytic effect at the narcotized guinea-pig, bronchospasm by acetylcholine; type: in vivo; settings: Cavia porcellus, iv, 2 min, 2 min. i.p.
Procedure: (§2) 2. Broncholytic effect at the narcotized guinea-pig
(§3) This test was performed according to H. Konsett and R. Rossler ("Archiv exp. Path. Pharmak." vol. 195 (1940), page 71).

isolated trancheal chain = experiment: Broncholytic effect at the isolated tracheal chain (isoprenaline reaction)
Procedure: 3. Broncholytic effect at the isolated trancheal chain
This test was performed according to J. C. Castillo and E. J. de Beer ("J. Pharm. Ther." vol. 90 (1947), page 104).

muscular blood perfusion = experiment: Muscular blood perfusion by fluvography at the cat (i.v.); type: in vivo
Procedure: (§4) Animal tests were carried out with various oxoalkylxanthine derivatives, in which the toxicity in the mouse, the increase of cerebral and muscular blood perfusion at the cat and the fibrinolytic effect in vitro in the Hanging-Clot-test were measured. Furthermore the broncholytic effect of various compounds was tested.
(§5) 1. Cerebral and muscular blood perfusion by fluvography
(§6) These tests were performed at the cat according to K. Popendiker, I. Boksay and V. Bollmann ("Arzneimittel Forschung" vol. 21 (1971), page 1160).
(§7) The values obtained in the mentioned test 1 are given as Δλ and as half-life values in Table 2 and the results of tests 2 to 5 are enumerated in Table 3. In Table 2 Δλ is the change of blood perfusion.

mouse [5] = settings: known compounds; cited from earlier work
[6] = system: bronchospasm against histamine; experiment: Broncholytic effect at the narcotized guinea-pig, bronchospasm by histamine; type: in vivo; settings: Cavia porcellus, iv, 2 min, 2 min. i.p.
Procedure: as §2, §3

cerebral blood perfusion = experiment: Cerebral blood perfusion by fluvography at the cat (i.v.); type: in vivo
Procedure: as §4, §5, §6, §7

CC(=O)CCCCn1cnc2c1c(=O)[nH]c(=O)n2C [Example 11, 3-methyl-7-(5-oxohexyl)-xanthine]
Increase in cerebral blood circulation compared with ethylene-diamine-theophylline [1]: by several times superior
Increase in the cerebral blood circulation [1]: significant and permanent increase in the cerebral blood circulation
Compatibility compared with ethylene-diamine-theophylline (mouse [2]): much more compatible
LD50 [3]: 1000 to 1500 mg/kg

CC(=O)CCCCn1c(=O)c2c(ncn2C)n(C)c1=O [Sample 8, 1-(5-Oxohexyl)-3,7-dimethylxanthine, reference compound]
Vascular dilatory action (blood vascular system): vaso-dilatory effect
Minimum concentration for partial lysis (human blood; 24 hours incubation): 100 mmol
Minimum concentration for partial lysis (human blood; 48 hours incubation (bracket)): 50 mmol
change in vivo at 3 mg/kg ([4]; 3 mg/kg i.v.): -15%
change in vivo at 10 mg/kg ([4]; 10 mg/kg i.v.): -41%
change in vivo at 20 mg/kg ([4]; 20 mg/kg i.v.): -72%
Inhibition of isoprenaline reaction in % (isolated trancheal chain; concentration 3 × 10^-5): 30%
Inhibition of isoprenaline reaction in % (isolated trancheal chain; concentration 3 × 10^-6): 0%
Inhibition of isoprenaline reaction in % (isolated trancheal chain; concentration 10^-4): 89%
Inhibition of isoprenaline reaction in % (isolated trancheal chain; concentration 10^-5): 5%
Muscular blood perfusion half-life (muscular blood perfusion; 1 mg/kg i.v.): 1.10 min
Muscular blood perfusion Δλ (change of blood perfusion) (muscular blood perfusion; 1 mg/kg i.v.): +0.02
Muscular blood perfusion half-life (muscular blood perfusion; 5 mg/kg i.v.): 3.30 min
Muscular blood perfusion Δλ (change of blood perfusion) (muscular blood perfusion; 5 mg/kg i.v.): +0.03
Muscular blood perfusion half-life (muscular blood perfusion; 10 mg/kg i.v.): 2.80 min
Muscular blood perfusion Δλ (change of blood perfusion) (muscular blood perfusion; 10 mg/kg i.v.): +0.15
Muscular blood perfusion half-life (muscular blood perfusion; 20 mg/kg i.v.): > 15 min
Muscular blood perfusion Δλ (change of blood perfusion) (muscular blood perfusion; 20 mg/kg i.v.): +1.38
Toxicity (mouse [5]): low toxicity
change in vivo at 3 mg/kg ([6]; 3 mg/kg i.v.): -4%
change in vivo at 5 mg/kg ([6]; 5 mg/kg i.v.): -94%
change in vivo at 10 mg/kg ([6]; 10 mg/kg i.v.): -83%
change in vivo at 20 mg/kg ([6]; 20 mg/kg i.v.): -100%
Cerebral blood perfusion half-life (cerebral blood perfusion; 1 mg/kg i.v.): 0.9 min
Cerebral blood perfusion Δλ (change of blood perfusion) (cerebral blood perfusion; 1 mg/kg i.v.): +0.44
Cerebral blood perfusion half-life (cerebral blood perfusion; 5 mg/kg i.v.): 2.4 min
Cerebral blood perfusion Δλ (change of blood perfusion) (cerebral blood perfusion; 5 mg/kg i.v.): +0.86
Cerebral blood perfusion half-life (cerebral blood perfusion; 10 mg/kg i.v.): 8.6 min
Cerebral blood perfusion Δλ (change of blood perfusion) (cerebral blood perfusion; 10 mg/kg i.v.): +1.15
